Each structure is given as a SMILES string. Converted amounts (≈) assume the structure as drawn. Like-named read-outs stand apart in the source and are kept apart here.

Holding throughout (experiment): microbe, parasite or virus in culture
Experiment [1] relates to K. pneumoniae strain 238 (MLST 15, ESBL). The experiment is classed as cell-based. The conditions noted are these: Klebsiella pneumoniae. The procedure: (§1) The efficacy of these new BLIs was also evaluated against 18 genetically diverse WGS-characterized collection of OXA-48-positive Enterobacterales recovered as part of the Carbapenem-resistant Enterobacterales Genome Database Project (https://genomes.cnag.cat/incredble) listed in Table S2 ([13]). Combinations of clinical isolates (five pairs of Klebsiella pneumoniae, two pairs of Enterobacter cloacae, and two pairs of E. coli) were chosen for analysis: (i) nine strains carrying ESBLs; and (ii) nine strains (genetically closer available strains) without ESBLs.
(§2) The MICs of each of the individual compounds (antibiotics or inhibitors) were also determined. The MICs were determined for the E. coli isogenic expressing OXA-48 (and both OXA-48 and CTX-M-14) to assess their activity against the carbapenemase; MICs were also determined for the 18 Enterobacterales clinical isolates in order to evaluate the new inhibitors against also their resistance concomitant mechanisms. The MICs were determined in triplicate experiments, and the EUCAST 13.0 clinical breakpoints were followed (http://www.eucast.org/clinical_breakpoints).
(§3) For comparative evaluation of the activity of each inhibitor alone against the carbapenemase OXA-48, all inhibitors (at 4 mg/L) were tested in the presence of a carbapenem (ertapenem, adequate substrate) and a cephalosporin (ceftazidime, poor substrate) as reporter substrates. This prevented any possible masking effect produced by the different partner antibiotics. These assays were also performed with isogenic transformants and clinical isolates.

Experiment [2] has as its system E. cloacae strain 231 (MLST 171, No ESBL). The experiment is classed as cell-based. The conditions noted are these: Enterobacter cloacae, E. cloacae 231, read-out: MIC. As for the experimental part: as §1, §2, §3
Experiment [3] relates to K. pneumoniae strain 194 (MLST 392, No ESBL). Format: cell-based. The conditions noted are these: Klebsiella pneumoniae, K. pneumoniae 194, read-out: MIC. As for the experimental part: as §1, §2, §3
The test system of experiment [4] is E. coli strain 103 (MLST 10, ESBL). Format: cell-based. The conditions noted are these: Escherichia coli. As for the experimental part: as §1, §2, §3
In experiment [5] the test system is K. pneumoniae strain 125 (MLST 307, ESBL). The experiment is classed as cell-based. The conditions noted are these: Klebsiella pneumoniae. The procedure:
as §1, §2, §3

The subject of experiment [6] is E. coli strain 264 (MLST 131, No ESBL). The experiment is classed as cell-based. The conditions noted are these: Escherichia coli, E. coli 264, read-out: MIC. As for the experimental part:
as §1, §2, §3

Experiment [7] has as its system K. pneumoniae strain 23 (MLST 392, ESBL). The experiment is classed as cell-based. The conditions noted are these: Klebsiella pneumoniae. The procedure:
as §1, §2, §3

Experiment [8] deals with K. pneumoniae strain 170 (MLST 307, No ESBL). Format: cell-based. The conditions noted are these: Klebsiella pneumoniae, K. pneumoniae 170, read-out: MIC. As for the experimental part:
as §1, §2, §3

The test system of experiment [9] is E. cloacae strain 235 (MLST 171, ESBL). The experiment is classed as cell-based. The conditions noted are these: Enterobacter cloacae. As for the experimental part:
as §1, §2, §3

The subject of experiment [10] is E. cloacae strain 272 (MLST 78, ESBL). The experiment is classed as cell-based. The conditions noted are these: Enterobacter cloacae. The procedure:
as §1, §2, §3

Experiment [11] relates to K. pneumoniae strain 413 (MLST 147, ESBL). The experiment is classed as cell-based. The conditions noted are these: Klebsiella pneumoniae. The procedure:
as §1, §2, §3

The subject of experiment [12] is K. pneumoniae strain 237 (MLST 147, No ESBL). The experiment is classed as cell-based. The conditions noted are these: Klebsiella pneumoniae, K. pneumoniae 237, read-out: MIC. As for the experimental part: as §1, §2, §3
The subject of experiment [13] is K. pneumoniae strain 19 (MLST 11, ESBL). Format: cell-based. The conditions noted are these: Klebsiella pneumoniae. As for the experimental part: as §1, §2, §3
The subject of experiment [14] is E. coli strain 177 (MLST 131, ESBL). Format: cell-based. The conditions noted are these: Escherichia coli. As for the experimental part: as §1, §2, §3
Experiment [15] concerns K. pneumoniae strain 497 (MLST 11, No ESBL). Format: cell-based. The conditions noted are these: Klebsiella pneumoniae, K. pneumoniae 497, read-out: MIC. As for the experimental part:
as §1, §2, §3

In experiment [16] the test system is E. cloacae strain 281 (MLST 78, No ESBL). The experiment is classed as cell-based. The conditions noted are these: Enterobacter cloacae, E. cloacae 281, read-out: MIC. The procedure: as §1, §2, §3
Experiment [17] concerns K. pneumoniae strain 71 (MLST 15, No ESBL). The experiment is classed as cell-based. The conditions noted are these: Klebsiella pneumoniae, K. pneumoniae 71, read-out: MIC. The procedure:
as §1, §2, §3

The test system of experiment [18] is E. coli strain 224 (MLST 127, No ESBL). Format: cell-based. The conditions noted are these: Escherichia coli, E. coli 224, read-out: MIC. As for the experimental part:
as §1, §2, §3

The test system of the next experiment is E. coli TG1. The experiment is classed as cell-based. The conditions noted are these: Escherichia coli. The procedure:
as §2, §3

For a further experiment, the system named is E. coli TG1 (OXA-48). The experiment is classed as cell-based, Escherichia coli. The conditions noted are these: Escherichia coli. The procedure: as §2, §3
In experiment [19] the test system is E. coli HB4 ΔompC/F (CTX-M-14 + OXA-48). Format: cell-based, Escherichia coli. The conditions noted are these: Escherichia coli.
Source text: (§4) The E. coli HB4 strain was used to gain a more complete perspective, by evaluating the involvement in resistance of a low permeability background with the carbapenemase OXA-48, as well as coproduction of an ESBL and the carbapenemase; thus, the ESBL CTX-M-14 and OXA-48 were cloned together and separately into E. coli HB4. The characteristics of these strains and transformants are summarized in Table S1, and the cloning procedures are outlined in the supplemental methods.
as §2, §3

Experiment [20] deals with E. coli HB4 ΔompC/F (OXA-48). Format: cell-based, Escherichia coli. The conditions noted are these: Escherichia coli.
Source text: as §4, §2, §3

Experiment [21] relates to E. coli HB4 ΔompC/F (CTX-M-14). The experiment is classed as cell-based, Escherichia coli. The conditions noted are these: Escherichia coli.
Source text: as §4, §2, §3

The test system of another experiment is E. coli HB4 ΔompC/F. Format: cell-based, Escherichia coli. The conditions noted are these: Escherichia coli.
Source text: as §4, §2, §3

Where [22] appears, read: BL alone or BL/BLI: AVI, REL, TAN, DUR 4 mg/L, VAB, XER 8 mg/L, ZID, NAC 1:1.
Where [23] appears, read: ertapenem alone or with BLI at 4 mg/L.

For `C[C@@H](O)[C@H]1C(=O)N2C(C(=O)O)=C(SCCN=CN)C[C@H]12` [IMP, imipenem], the MIC came to 2 µg/mL in experiment [1]; 2 µg/mL in experiment [2] (setting [22]); 2 µg/mL in experiment [3] (setting [22]); 2 µg/mL in experiment [4]; 4 µg/mL in experiment [5]; 0.5 µg/mL in experiment [6] (setting [22]). The MIC in [7] was 4 µg/mL; in [8] (setting [22]) it was 4 µg/mL; in experiment [9], not below 256 µg/mL; in [10], 2 µg/mL; in experiment [11], 16 µg/mL; in experiment [12] (setting [22]) it was 2 µg/mL. Besides, the MIC in [13] was 1 µg/mL; in experiment [14], 2 µg/mL; in experiment [15] (setting [22]), 4 µg/mL; in [16] (setting [22]), 8 µg/mL; in experiment [17] (setting [22]), 2 µg/mL; in [18] (setting [22]) it was 2 µg/mL. The MIC is not above 0.06 µg/mL in the experiment on E. coli TG1 (setting [22]); 0.12 µg/mL (≈ 0.401 µM) against E. coli TG1 (OXA-48); 16 µg/mL (≈ 53.4 µM) in experiment [19]; 16 µg/mL (≈ 53.4 µM) in experiment [20]; 0.25 µg/mL (≈ 0.835 µM) in experiment [21]; not above 0.06 µg/mL with E. coli HB4 ΔompC/F.
With `C[C@@H](O)[C@H]1C(=O)N2C(C(=O)O)=C(S[C@@H]3CN[C@H](C(=O)Nc4cccc(C(=O)O)c4)C3)[C@H](C)[C@H]12` [ERT, ertapenem], the MIC in [1] was 4 µg/mL; in [2] (setting [23]), 8 µg/mL; in experiment [3] (setting [23]), 4 µg/mL; in [4], 4 µg/mL; in [5] it was 8 µg/mL; in experiment [6] (setting [23]), 4 µg/mL. Besides, the MIC in [7] is 4 µg/mL; in experiment [8] (setting [23]), 4 µg/mL; in experiment [9], not below 256 µg/mL; in [10], 16 µg/mL; in experiment [11], not below 256 µg/mL; in experiment [12] (setting [23]), 4 µg/mL. The MIC in [13] was found to be 4 µg/mL; in experiment [14], 4 µg/mL; in experiment [15] (setting [23]), 8 µg/mL; in [16] (setting [23]), 4 µg/mL; in experiment [17] (setting [23]), 8 µg/mL; in experiment [18] (setting [23]) it was 2 µg/mL. Also, the MIC is not above 0.06 µg/mL in the experiment with E. coli TG1 (setting [23]); 1 µg/mL (≈ 2.1 µM) in the experiment on E. coli TG1 (OXA-48); 32 µg/mL (≈ 67.3 µM) in experiment [19]; 32 µg/mL (≈ 67.3 µM) in experiment [20]; 0.5 µg/mL (≈ 1.05 µM) in experiment [21]; 0.12 µg/mL (≈ 0.252 µM) in the experiment with E. coli HB4 ΔompC/F.
Consider `CO/N=C(\C(=O)N[C@@H]1C(=O)N2C(C(=O)[O-])=C(C[N+]3(C)CCCC3)CS[C@H]12)c1csc(N)n1` [FEP, cefepime], for which the MIC was 0.25 µg/mL in experiment [3] (setting [22]); 32 µg/mL in [7]; 0.25 µg/mL in experiment [8] (setting [22]); 128 µg/mL in experiment [11]; 0.5 µg/mL in [12] (setting [22]); not below 256 µg/mL in experiment [14]. Further, the MIC was 0.5 µg/mL in [15] (setting [22]); 0.5 µg/mL in experiment [17] (setting [22]); 0.5 µg/mL in experiment [18] (setting [22]); not above 0.06 µg/mL in the experiment on E. coli TG1 (setting [22]); not above 0.06 µg/mL with E. coli TG1 (OXA-48); 1 µg/mL (≈ 2.08 µM) with E. coli HB4 ΔompC/F.
